From patent publication US9845322B2 (Hoffmann-La Roche Inc., priority 2016, dated 2017) come the findings set out here.

Each structure is given as a SMILES string. Like-named read-outs stand apart in the source and are kept apart here.

The experiment relates to HBsAg secretion in HepG2.2.15 cells. As to the kind of experiment: HBsAg assay (chemiluminescence immunoassay of secreted HBsAg in culture supernatant). It is filed as cell-based, HBV. The note with it: concentration at which HBsAg secretion was reduced by 50% compared to the no drug control, read-out: IC50 (HBsAg assay). The method, then: HepG2.2.15 cells (Acs et al. Proc Natl Acad Sci USA, 84, (1987), 4641-4), a constitutively HBV-expressing cell line were cultured in DMEM+Glutamax-I medium (Invitrogen, Carlsbad, Calif., USA), supplemented with 10% fetal bovine serum (Invitrogen) and G418 (Invitrogen) at a final concentration of 200 mg/L and maintained in 5% CO2 at 37° C.
HepG2.2.15 cells were seeded in duplicate into white, 96-well plates at 1.5×10^4 cells/well. The cells were treated with a three-fold serial dilution series of the compounds in DMSO. The final DMSO concentration in all wells was 1% and DMSO was used as no drug control.
The HBsAg chemiluminescence immunoassay (CLIA) kit (Autobio Diagnostics Co., Zhengzhou, China, Catalog number: CL0310-2) was used to measure the levels of secreted HBV antigens semi-quantitatively. For the detection 50 μL/well culture supernatant was used and HBsAg was quantified using HBsAg chemiluminescence immunoassay (CLIA) kit (Autobio Diagnostics Co., Zhengzhou, China, Catalog number: CL0310-2), 50 μL of the supernatant was transferred to the CLIA assay plate and 50 μL of enzyme conjugate reagent was added into each well. The plates were sealed and gently agitated for 1 hour at room temperature. The supernatant-enzyme-mixture was discarded and wells were washed 6 times with 300 μL of PBS. The residual liquid was removed by plating the CLIA plate […] on absorbent tissue paper. 25 μL of substrates A and B were added to each well. Luminance was measured using a luminometer (Mithras LB 940 Multimode Microplate Reader) after 10 minutes incubation. Dose-response curves were generated and the IC50 value was extrapolated by using the E-WorkBook Suite (ID Business Solutions Ltd., Guildford, UK). The IC50 was defined as the compound concentration (or conditioned media log dilution) at which HBsAg secretion was reduced by 50% compared to the no drug control.
The compounds according to formula I were tested for their capacity to inhibit HBsAg as described herein.

Setting [1] is: Hepatitis B virus, HepG2.2.15, HepG2.2.15 cells.

The IC50 is the midpoint of a concentration-inhibition curve. Regarding `CC1c2cnc(-c3ncccn3)nc2CCN1c1cc(F)c(F)c(OCCCN2CCN(S(C)(=O)=O)CC2)c1` (stereo not shown) [Example 110, 6-[3,4-difluoro-5-[3-(4-methylsulfonylpiperazin-1-yl)propoxy]phenyl]-5-methyl-2-pyrimidin-2-yl-7,8-dihydro-5H-pyrido[4,3-d]pyrimidine], under setting [1], the IC50 was found to be 79 nM. Same read-out and setting: with `CC1c2cnc(-c3ncccn3)nc2CCN1c1cc(F)c(F)c(OCCCCCN)c1` (stereo not shown) [Example 57, 5-[2,3-difluoro-5-(5-methyl-2-pyrimidin-2-yl-7,8-dihydro-5H-pyrido[4,3-d]pyrimidin-6-yl)phenoxy]pentan-1-amine] the figure was 110 nM; with `COc1cc(F)cc(N2CCc3nc(-c4ncccn4)ncc3C2C)n1` (stereo not shown) [Example 142, 6-(4-fluoro-6-methoxy-2-pyridyl)-5-methyl-2-pyrimidin-2-yl-7,8-dihydro-5H-pyrido[4,3-d]pyrimidine], 40 nM.

Take `CC1c2cnc(-c3ncccn3)nc2CCN1c1cc(OCCCCCCCC(=O)O)cc(F)n1` (stereo not shown) [Example 168, 8-[[2-fluoro-6-(5-methyl-2-pyrimidin-2-yl-7,8-dihydro-5H-pyrido[4,3-d]pyrimidin-6-yl)-4-pyridyl]oxy]octanoic acid]: the IC50 under setting [1] stood at 21 nM. For `CC1c2cnc(-c3ncccn3)nc2CCN1c1cc(N2CCCC2)cc(F)n1` (single isomer, unassigned; (+)) [Example 201, (+)-6-(6-fluoro-4-pyrrolidin-1-yl-2-pyridyl)-5-methyl-2-pyrimidin-2-yl-7,8-dihydro-5H-pyrido[4,3-d]pyrimidine], the IC50 (HepG2.2.15 cells) was found to be 124 nM.

In the case of `CCOC(=O)CC1c2cnc(-c3ccccn3)nc2CCN1c1cc(F)c(F)c(OC)c1` (stereo not shown) [Example 36, ethyl 2-[6-(3,4-difluoro-5-methoxy-phenyl)-2-(2-pyridyl)-7,8-dihydro-5H-pyrido[4,3-d]pyrimidin-5-yl]acetate], under setting [1], the IC50 is 39800 nM. For `CC1c2cnc(-c3ncccn3)nc2CCN1c1cc(F)cc(C2CC2)c1` (stereo not shown) [Example 137, 6-(3-cyclopropyl-5-fluoro-phenyl)-5-methyl-2-pyrimidin-2-yl-7,8-dihydro-5H-pyrido[4,3-d]pyrimidine], the IC50 under setting [1] is 124 nM.

`CC1c2cnc(-c3ccccn3)nc2CCN1c1cc(F)cc(N2CCNC(=O)C2)n1` (stereo not shown) [Example 223, 4-[4-fluoro-6-[5-methyl-2-(2-pyridyl)-7,8-dihydro-5H-pyrido[4,3-d]pyrimidin-6-yl]-2-pyridyl]piperazin-2-one]: the 50% inhibitory concentration (IC50) under setting [1] is 15 nM. On the same count and under the same terms, to `Cc1cc(F)cc(N2CCc3nc(-c4ncccn4)ncc3C2C)c1` (stereo not shown) [Example 134, 6-(3-fluoro-5-methyl-phenyl)-5-methyl-2-pyrimidin-2-yl-7,8-dihydro-5H-pyrido[4,3-d]pyrimidine] belongs 48 nM.

Regarding `CC1c2cnc(-c3ncccn3)nc2CCN1c1cc(F)cc(N2CCNCC2)n1` (stereo not shown) [Example 209, 6-(4-fluoro-6-piperazin-1-yl-2-pyridyl)-5-methyl-2-pyrimidin-2-yl-7,8-dihydro-5H-pyrido[4,3-d]pyrimidine], the IC50 under setting [1] came out at 649 nM. The same measure, in the same setting: with `CC1c2cnc(-c3ncccn3)nc2CCN1c1cc(F)c(F)c(OCC(=O)N2CCOCC2)c1` (stereo not shown) [Example 84, 2-[2,3-difluoro-5-(5-methyl-2-pyrimidin-2-yl-7,8-dihydro-5H-pyrido[4,3-d]pyrimidin-6-yl)phenoxy]-1-morpholino-ethanone] the figure was 266 nM. Still for that read-out and setting: to `CC1c2cnc(-c3ncccn3)nc2CCN1c1cc(OCCCCCC(=O)O)cc(F)n1` (single isomer, unassigned; (-)) [Example 164, (−)-6-[[2-fluoro-6-[5-methyl-2-pyrimidin-2-yl-7,8-dihydro-5H-pyrido[4,3-d]pyrimidin-6-yl]-4-pyridyl]oxy]hexanoic acid] belongs 22 nM.

As for `COc1cc(N2CCc3nc(-c4ncccn4)ncc3C2C)nc(F)c1I` (stereo not shown) [Example 128, 6-(6-fluoro-5-iodo-4-methoxy-2-pyridyl)-5-methyl-2-pyrimidin-2-yl-7,8-dihydro-5H-pyrido[4,3-d]pyrimidine], the IC50 under setting [1] amounted to 5 nM. Still for that read-out and setting: to `CC1c2cnc(-c3ccccn3)nc2CCN1c1cc(F)cc(N2CCCCC2)n1` (stereo not shown) [Example 219, 6-[4-fluoro-6-(1-piperidyl)-2-pyridyl]-5-methyl-2-(2-pyridyl)-7,8-dihydro-5H-pyrido[4,3-d]pyrimidine] belongs 110 nM; to `COc1cc(Cl)nc(N2CCc3nc(-c4ncccn4)ncc3C2C)c1` (stereo not shown) [Example 126], 8 nM. `CC1c2cnc(-c3ncccn3)nc2CCN1c1cc(F)cc(OC(F)(F)F)c1` (stereo not shown) [Example 133, 6-[3-fluoro-5-(trifluoromethoxy)phenyl]-5-methyl-2-pyrimidin-2-yl-7,8-dihydro-5H-pyrido[4,3-d]pyrimidine]: the IC50 under setting [1] was 1760 nM. As to `COC(=O)C(CCOc1cc(N2CCc3nc(-c4ncccn4)ncc3C2C)cc(F)c1F)NC(=O)OC(C)(C)C` (stereo not shown) [Example 102, methyl 2-(tert-butoxycarbonylamino)-4-[2,3-difluoro-5-(5-methyl-2-pyrimidin-2-yl-7,8-dihydro-5H-pyrido[4,3-d]pyrimidin-6-yl)phenoxy]butanoate], under setting [1], the IC50 came to 249 nM.

With `COCCOc1cc(N2CCc3nc(-c4ccccn4)ncc3C2C)cc(F)c1F` (single isomer, unassigned; (+)) [Example 20, (+)-6-[3,4-difluoro-5-(2-methoxyethoxy)phenyl]-5-methyl-2-(2-pyridyl)-7,8-dihydro-5H-pyrido[4,3-d]pyrimidine], the IC50 (HepG2.2.15 cells) was 5010 nM. For the compound `COc1cc(F)c(Cl)c(N2CCc3nc(-c4ncccn4)ncc3C2C)c1Cl` (single isomer, unassigned; (+)) [Example 123, (+)-6-(2,6-dichloro-3-fluoro-5-methoxy-phenyl)-5-methyl-2-pyrimidin-2-yl-7,8-dihydro-5H-pyrido[4,3-d]pyrimidine], under setting [1], the IC50 amounted to 1140 nM. Regarding `CC1c2cnc(-c3ncccn3)nc2CCN1c1cc(F)c(F)c(OCCCS(C)(=O)=O)c1` (stereo not shown) [Example 47, 6-[3,4-difluoro-5-(3-methylsulfonylpropoxy)phenyl]-5-methyl-2-pyrimidin-2-yl-7,8-dihydro-5H-pyrido[4,3-d]pyrimidine], the IC50 (HepG2.2.15 cells) worked out at 36 nM. `CCCC1c2cnc(-c3ccccn3)nc2CCN1c1cc(F)c(F)c(OC)c1` (stereo not shown) [Example 12, 6-(3,4-difluoro-5-methoxy-phenyl)-5-propyl-2-(2-pyridyl)-7,8-dihydro-5H-pyrido[4,3-d]pyrimidine]: the IC50 (HepG2.2.15 cells) amounted to 7490 nM. As for `CC(=O)NCCCOc1cc(N2CCc3nc(-c4ncccn4)ncc3C2C)cc(F)c1F` (stereo not shown) [Example 92, N-[3-[2,3-difluoro-5-(5-methyl-2-pyrimidin-2-yl-7,8-dihydro-5H-pyrido[4,3-d]pyrimidin-6-yl)phenoxy]propyl]acetamide], under setting [1], the IC50 came to 54 nM.

Regarding `CCC1c2cnc(-c3ccccn3)nc2CCN1c1cc(F)c(F)c(OC)c1` (single isomer, unassigned; (-)) [Example 11, (−)-6-(3,4-difluoro-5-methoxy-phenyl)-5-ethyl-2-(2-pyridyl)-7,8-dihydro-5H-pyrido[4,3-d]pyrimidine], the IC50 (HepG2.2.15 cells) came out at 85 nM. Consider `COc1cc(F)c(Cl)c(N2CCc3nc(-c4ncccn4)ncc3C2C)c1` (single isomer, unassigned; (-)) [Example 130, (−)-6-(2-chloro-3-fluoro-5-methoxy-phenyl)-5-methyl-2-pyrimidin-2-yl-7,8-dihydro-5H-pyrido[4,3-d]pyrimidine], for which, under setting [1], the IC50 came to 679 nM. Same read-out and setting: to `CC1c2cnc(-c3ncccn3)nc2CCN1c1cc(F)c(F)c(OCCCCCNC(=O)OC(C)(C)C)c1` (stereo not shown) [Example 56, tert-butyl N-[5-[2,3-difluoro-5-(5-methyl-2-pyrimidin-2-yl-7,8-dihydro-5H-pyrido[4,3-d]pyrimidin-6-yl)phenoxy]pentyl]carbamate] belongs 55 nM; to `CC1c2cnc(-c3ncccn3)nc2CCN1c1cc(OC2CCOCC2)cc(F)n1` (stereo not shown) [Example 172, 6-(6-fluoro-4-tetrahydropyran-4-yloxy-2-pyridyl)-5-methyl-2-pyrimidin-2-yl-7,8-dihydro-5H-pyrido[4,3-d]pyrimidine], 56 nM; to `CC1c2cnc(-c3ccccn3)nc2CCN1c1cc(N2CCOCC2)cc(F)n1` (stereo not shown) [Example 220, 4-[2-fluoro-6-[5-methyl-2-(2-pyridyl)-7,8-dihydro-5H-pyrido[4,3-d]pyrimidin-6-yl]-4-pyridyl]morpholine], 21 nM. Turning to `CC1c2cnc(-c3ncccn3)nc2CCN1c1cc(F)c(F)c(OCCC(NC(=O)OC(C)(C)C)C(=O)O)c1` (stereo not shown) [Example 103, 2-(tert-butoxycarbonylamino)-4-[2,3-difluoro-5-(5-methyl-2-pyrimidin-2-yl-7,8-dihydro-5H-pyrido[4,3-d]pyrimidin-6-yl)phenoxy]butanoic acid], the IC50 under setting [1] was found to be 2160 nM.
